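Each compound was tested at five concentrations against cells in 96-well plates for 48 hours. The concentration for 50% growth inhibition is given as GI50.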 Calls of active or inactive are those of the source. Rule as the data show it: active = GI50 up to about 1.1 µM and inactive = higher. Where a SMILES comes first, the peptide text is derived from it. The star is where a group is joined. Cbz = O=C(OCc1ccccc1)*; NHNH2 = NN*
What was measured:
Assay in all cases: NCI anticancer screen, dose series, 48 h
[1] = tested on: A498
[2] = tested on: ACHN
[3] = tested on: HCC 2998
[4] = tested on: HCT-116
[5] = tested on: HL-60
[6] = tested on: HOP-92
[7] = tested on: HT-29
[8] = tested on: NCI-H522
[9] = tested on: OVCAR-4
[10] = tested on: OVCAR-5
[11] = tested on: OVCAR-8
[12] = tested on: SF-295
[13] = tested on: SK-MEL-28
[14] = tested on: SNB-75
[15] = tested on: TK-10
[16] = tested on: U-251
[17] = tested on: MCF7
[18] = tested on: MDA-MB-435
[19] = tested on: PC-3

Row | Compound | GI50 [1] | GI50 [2] | GI50 [3] | GI50 [4] | GI50 [5] | GI50 [6] | GI50 [7] | GI50 [8] | GI50 [9] | GI50 [10] | GI50 [11] | GI50 [12] | GI50 [13] | GI50 [14] | GI50 [15] | GI50 [16] | GI50 [17] | GI50 [18] | GI50 [19]
1 | C/C(CC(=O)Nc1ccc(C)c(C)c1)=N\N(c1ccccc1)c1ccccc1 | > 100 µM (inactive) | 58.9 µM (inactive) | > 100 µM (inactive) | 43.4 µM (inactive) | 88.1 µM (inactive) | > 100 µM (inactive) | > 100 µM (inactive) | 15.2 µM (inactive) | 43.4 µM (inactive) | > 100 µM (inactive) | > 100 µM (inactive) | > 100 µM (inactive) | 68.1 µM (inactive) | 65.9 µM (inactive) | > 100 µM (inactive) | 15.2 µM (inactive) |  |  | 
2 | COC12CC(O)=C(C(C)=O)C(=O)C1(C)c1c(OC(C)=O)c(C)c(O)c(C(C)=O)c1O2 (configuration not stated) | 17.3 µM (inactive) | 12.3 µM (inactive) | 18.3 µM (inactive) | 21 µM (inactive) | 15.8 µM (inactive) | 18.4 µM (inactive) | 20.5 µM (inactive) |  | 18.7 µM (inactive) | 31.9 µM (inactive) | 10.8 µM (inactive) | 8.09 µM (inactive) | 16 µM (inactive) | 16 µM (inactive) | 25.4 µM (inactive) | 9.25 µM (inactive) |  |  | 
3 | COC(=O)[C@]12CC3C=CC1N(C3)C(CBr)c1c2n(S(=O)(=O)c2ccccc2)c2ccccc12 (some centres not stated) |  | 48.3 µM (inactive) | > 100 µM (inactive) | 47.9 µM (inactive) | 35.1 µM (inactive) |  | 45.3 µM (inactive) | 27.9 µM (inactive) | 38.5 µM (inactive) | > 100 µM (inactive) | 49 µM (inactive) | 42.2 µM (inactive) | > 100 µM (inactive) | 25.9 µM (inactive) | > 100 µM (inactive) | 63 µM (inactive) | 46.9 µM (inactive) | 76.2 µM (inactive) | 42.8 µM (inactive)
4 | CC(=O)OC1COC(n2c(=S)n(-c3ccccc3)c(=O)c3cc(Br)ccc32)C(OC(C)=O)C1OC(C)=O (configuration not stated) | 49.4 µM (inactive) | > 100 µM (inactive) | > 100 µM (inactive) | 23.9 µM (inactive) | > 100 µM (inactive) | 19.5 µM (inactive) | 72.1 µM (inactive) | 45.8 µM (inactive) | 7.5 µM (inactive) | > 100 µM (inactive) | 36.1 µM (inactive) | 27.5 µM (inactive) | 37.8 µM (inactive) | 7.11 µM (inactive) |  | 14.6 µM (inactive) |  |  | 
5 | CCOC(=O)NN1C(=O)C(=P(c2ccccc2)(c2ccccc2)c2ccccc2)C(C(=O)OC)=C1C | > 100 µM (inactive) | > 100 µM (inactive) | > 100 µM (inactive) | > 100 µM (inactive) | > 100 µM (inactive) | > 100 µM (inactive) | > 100 µM (inactive) | > 100 µM (inactive) | > 100 µM (inactive) | > 100 µM (inactive) | > 100 µM (inactive) | > 100 µM (inactive) |  | > 100 µM (inactive) | > 100 µM (inactive) | > 100 µM (inactive) |  |  | 
6 | CC1(C)CCc2cc3c(cc2O1)OCCC3=O | > 100 µM (inactive) | > 100 µM (inactive) | > 100 µM (inactive) | > 100 µM (inactive) | 95.1 µM (inactive) | > 100 µM (inactive) | > 100 µM (inactive) | > 100 µM (inactive) | > 100 µM (inactive) | > 100 µM (inactive) | > 100 µM (inactive) | > 100 µM (inactive) |  | > 100 µM (inactive) | > 100 µM (inactive) | > 100 µM (inactive) |  |  | 
7 | CCCCCCCCCCOC(=O)c1cc[n+](C)cc1 | 15.6 µM (inactive) | 18.6 µM (inactive) |  | 18.3 µM (inactive) | 17.8 µM (inactive) | 15.8 µM (inactive) | 16.7 µM (inactive) | 16.1 µM (inactive) | 18.1 µM (inactive) | 13.6 µM (inactive) | 17.2 µM (inactive) | 16.7 µM (inactive) | 17.4 µM (inactive) | 19.3 µM (inactive) | 17.1 µM (inactive) | 15.7 µM (inactive) |  |  | 
8 | CC1(O)C(C)(O)C(C)(O)C1(C)O (configuration not stated) | > 100 µM (inactive) | > 100 µM (inactive) | > 100 µM (inactive) | > 100 µM (inactive) | > 100 µM (inactive) | > 100 µM (inactive) | > 100 µM (inactive) | > 100 µM (inactive) | > 100 µM (inactive) | > 100 µM (inactive) | > 100 µM (inactive) | > 100 µM (inactive) | > 100 µM (inactive) | > 100 µM (inactive) | > 100 µM (inactive) | > 100 µM (inactive) |  |  | 
9 | CCCCN(CCCC)C(=O)C(=O)CC(=O)/C=C/c1ccccc1 | > 100 µM (inactive) | > 100 µM (inactive) | > 100 µM (inactive) | > 100 µM (inactive) | > 100 µM (inactive) | > 100 µM (inactive) | > 100 µM (inactive) | > 100 µM (inactive) | > 100 µM (inactive) | > 100 µM (inactive) | > 100 µM (inactive) | > 100 µM (inactive) | > 100 µM (inactive) | > 100 µM (inactive) | > 100 µM (inactive) | > 100 µM (inactive) |  |  | 
10 | NCc1cccc(O)c1O | > 100 µM (inactive) | > 100 µM (inactive) |  | 79.8 µM (inactive) | 38.7 µM (inactive) | > 100 µM (inactive) | > 100 µM (inactive) | > 100 µM (inactive) | > 100 µM (inactive) | > 100 µM (inactive) | > 100 µM (inactive) | > 100 µM (inactive) | > 100 µM (inactive) | > 100 µM (inactive) | > 100 µM (inactive) | > 100 µM (inactive) |  |  | 
11 | C[C@]12CCC3c4ccc(OC(=O)c5ccccc5)cc4CC[C@H]3C1CC[C@@H]2OC(=O)C12OC1CCC2=O (some centres not stated) | 6.04 µM (inactive) | 5.27 µM (inactive) | 23.7 µM (inactive) | 3.03 µM (inactive) | 1.9 µM (inactive) | 19.7 µM (inactive) | 3.34 µM (inactive) | 2.31 µM (inactive) | 5.41 µM (inactive) | 8.38 µM (inactive) | 4.53 µM (inactive) | 12.3 µM (inactive) | 6.11 µM (inactive) | 13.7 µM (inactive) | 18.7 µM (inactive) | 2.8 µM (inactive) |  |  | 
12 | CCCCCCCCCCCc1noc2c1C(=O)C(O)CC2 (configuration not stated) | 34.9 µM (inactive) | 32.8 µM (inactive) |  | 17.6 µM (inactive) | 23.9 µM (inactive) | 20.1 µM (inactive) | 18.8 µM (inactive) | 20.5 µM (inactive) | 16.6 µM (inactive) | 18.2 µM (inactive) | 18.9 µM (inactive) | 21.2 µM (inactive) | 23.8 µM (inactive) | 24.1 µM (inactive) | 56.6 µM (inactive) | 14.6 µM (inactive) |  |  | 
13 | CCOc1ccc(NC(=O)/C(=C\c2ccc(C)cc2)C(C)=O)cc1 | > 100 µM (inactive) | > 100 µM (inactive) | > 100 µM (inactive) | > 100 µM (inactive) | < 0.01 µM (active) | > 100 µM (inactive) | > 100 µM (inactive) | > 100 µM (inactive) | > 100 µM (inactive) | > 100 µM (inactive) | > 100 µM (inactive) | > 100 µM (inactive) | > 100 µM (inactive) | > 100 µM (inactive) | > 100 µM (inactive) | > 100 µM (inactive) |  |  | 
14 | Cc1c[n+]2c3ccccc3c3ccccc3c2s1.[O-][Cl+3]([O-])([O-])[O-] | 55.6 µM (inactive) | 42.6 µM (inactive) | 3.2 µM (inactive) | 6.37 µM (inactive) | 14.2 µM (inactive) | 16.6 µM (inactive) | 14.1 µM (inactive) | 1.73 µM (inactive) | 8.73 µM (inactive) | 1.77 µM (inactive) | 3.3 µM (inactive) | 5.97 µM (inactive) | 2.25 µM (inactive) | 3.31 µM (inactive) | 1.39 µM (inactive) | 0.368 µM (active) |  |  | 
15 | Cc1cccc(NC(=O)/C=C/c2ccc(N(CCC#N)CCC#N)cc2C)c1 | > 100 µM (inactive) | 70.3 µM (inactive) | > 100 µM (inactive) | > 100 µM (inactive) | 21.5 µM (inactive) | > 100 µM (inactive) | > 100 µM (inactive) | > 100 µM (inactive) | > 100 µM (inactive) | > 100 µM (inactive) | > 100 µM (inactive) | > 100 µM (inactive) | > 100 µM (inactive) | 54.5 µM (inactive) | > 100 µM (inactive) | > 100 µM (inactive) |  |  | 
16 | CC1CC(=O)C2CC(CO)=CCCC2C1(C)CC/C(=C/CO)CO (configuration not stated) | > 100 µM (inactive) | > 100 µM (inactive) | > 100 µM (inactive) | > 100 µM (inactive) |  | > 100 µM (inactive) | > 100 µM (inactive) | 87.9 µM (inactive) |  |  | > 100 µM (inactive) | > 100 µM (inactive) | > 100 µM (inactive) | > 100 µM (inactive) | > 100 µM (inactive) | > 100 µM (inactive) |  |  | 
17 | CCOC(=O)CCC(NC(=O)OCc1ccccc1)C(=O)NC(CCC(=O)OCC)C(=O)NN (configuration not stated) (Cbz-Glu(OEt)-Glu(OEt)-NHNH2; configuration not given here) | > 100 µM (inactive) | > 100 µM (inactive) | > 100 µM (inactive) | > 100 µM (inactive) | > 100 µM (inactive) | > 100 µM (inactive) | > 100 µM (inactive) |  |  | > 100 µM (inactive) | > 100 µM (inactive) |  | > 100 µM (inactive) | > 100 µM (inactive) | > 100 µM (inactive) | > 100 µM (inactive) | > 100 µM (inactive) |  | > 100 µM (inactive)
